Assay results as given in patent publication US12643871B2, “Aryl formamide compound containing chiral sulfur oxide or salt thereof, preparation method, herbicidal composition and use thereof” (Qingdao Kingagroot Chemical Compound Co., Ltd., priority 2019, dated 2026).

Key:
Test in all cases: Weeding effect in post-emergence stage
Format in all cases: in vivo
Conditions in all cases: 250 g/ha; 2 leaf stage; 15 days after application; fresh weight control rate
[1] = system: Setaria viridis
How it was run: (§1)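 Post-emergence spray, 2-leaf stage; doses 500–15 g/ha; acetone + Tween 80 + methyl oleate EC (1.5 L/ha) as synergist. Greenhouse 15 d. Readout: fresh weight control rate graded levels 0–5 (5 = above 85%, 0 = below 5%); triplicate means.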

[2] = system: Abutilon theophrasti
How it was run: as §1

[3] = system: Echinochloa crusgali
How it was run: as §1

[4] = system: Amaranthus retroflexus
How it was run: as §1

[5] = system: Digitaria sanguinalis
How it was run: as §1

Structure (SMILES)	weeding effect in post-emergence stage, activity level (growth control rate), Setaria viridis [1]	weeding effect in post-emergence stage, activity level (growth control rate), Abutilon theophrasti [2]	weeding effect in post-emergence stage, activity level (growth control rate), Echinochloa crusgali [3]	weeding effect in post-emergence stage, activity level (growth control rate), Amaranthus retroflexus [4]	weeding effect in post-emergence stage, activity level (growth control rate), Digitaria sanguinalis [5]
Cc1nnc(NC(=O)c2ccc(C(F)(F)F)c([S@+]([O-])CC(C)F)c2F)o1 (stereo partly drawn) [Compound 27]	5 (Level 5: growth control rate is above 85%)	5 (Level 5: growth control rate is above 85%)	5 (Level 5: growth control rate is above 85%)	5 (Level 5: growth control rate is above 85%)	5 (Level 5: growth control rate is above 85%)
Cc1nnc(NC(=O)c2ccc(C(F)(F)F)c([S@+]([O-])CCC(F)F)c2F)o1 [Compound 28]	5 (Level 5: growth control rate is above 85%)	5 (Level 5: growth control rate is above 85%)	5 (Level 5: growth control rate is above 85%)	5 (Level 5: growth control rate is above 85%)	5 (Level 5: growth control rate is above 85%)
Cc1nnc(NC(=O)c2ccc(C(F)(F)F)c([S@+]([O-])CC(C)(F)F)c2F)o1 [Compound 29]	5 (Level 5: growth control rate is above 85%)	5 (Level 5: growth control rate is above 85%)	5 (Level 5: growth control rate is above 85%)	5 (Level 5: growth control rate is above 85%)	5 (Level 5: growth control rate is above 85%)
Cc1nnc(NC(=O)c2ccc(C(F)(F)F)c([S@+]([O-])C(F)(F)F)c2F)o1 [Compound 30]	5 (Level 5: growth control rate is above 85%)	5 (Level 5: growth control rate is above 85%)	5 (Level 5: growth control rate is above 85%)	5 (Level 5: growth control rate is above 85%)	5 (Level 5: growth control rate is above 85%)
Cc1nnc(NC(=O)c2ccc(C(F)(F)F)c([S@+]([O-])C(F)(F)C(F)(F)F)c2F)o1 [Compound 31]	5 (Level 5: growth control rate is above 85%)	5 (Level 5: growth control rate is above 85%)	5 (Level 5: growth control rate is above 85%)	5 (Level 5: growth control rate is above 85%)	5 (Level 5: growth control rate is above 85%)
Cc1nnc(NC(=O)c2ccc(C(F)(F)F)c([S@+]([O-])C(F)(C(F)(F)F)C(F)(F)F)c2F)o1 [Compound 32]	5 (Level 5: growth control rate is above 85%)	5 (Level 5: growth control rate is above 85%)	5 (Level 5: growth control rate is above 85%)	5 (Level 5: growth control rate is above 85%)	5 (Level 5: growth control rate is above 85%)
